Reference: patent publication US9370515B2, “Mixed lineage kinase inhibitors and method of treatments” (CALIFIA BIO, INC., priority 2013, dated 2016)

Legend:
[1] = biological target: MLK-3 (Homo sapiens, UniProt Q16584); assay: Biochemical assay for the inhibition of kinase activity for MLK-3 (33P-ATP, HOTSPOT filter binding); details: activated MLK-3 20 nM, ATP 50 μM, myelin basic protein 20 μM, 20 minutes room temperature
Method in brief: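 Activated MLK-3 (20 nM) with myelin basic protein (20 μM) in 20 mM Hepes pH 7.5, MgCl2, EGTA, Brij35, BSA, Na3VO4, DTT, 1% DMSO. Started with 33P-ATP at 50 μM ATP, 20 min at room temperature; % activity by HOTSPOT filter binding.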

[2] = biological target: diverse set of kinases (Homo sapiens, UniProt P00519, T315I); assay: Protein kinase selectivity: IC50 against a diverse set of kinases, compared with URMC-099; type: biochemical; details: kinase ABL1; read-out: IC50 ABL1(T31SI)
Description: (§1) Protein Kinase Selectivity: MLK-3 inhibitors previously reported in the literature are somewhat promiscuous and inhibit a large number of serine and threonine protein kinases. Compounds of the present invention that show potent inhibition on MLK-3 are very specific for MLK family kinases. […] Journal of Medicinal Chemistry, 2013.

[3] = biological target: T1, diverse set of kinases (Homo sapiens, UniProt O15111); assay: as above; type: biochemical; details: kinase IKKa
T1 construct: IC50 IKKa; other: kinase IKKa
T1 sequence (O15111 1-745): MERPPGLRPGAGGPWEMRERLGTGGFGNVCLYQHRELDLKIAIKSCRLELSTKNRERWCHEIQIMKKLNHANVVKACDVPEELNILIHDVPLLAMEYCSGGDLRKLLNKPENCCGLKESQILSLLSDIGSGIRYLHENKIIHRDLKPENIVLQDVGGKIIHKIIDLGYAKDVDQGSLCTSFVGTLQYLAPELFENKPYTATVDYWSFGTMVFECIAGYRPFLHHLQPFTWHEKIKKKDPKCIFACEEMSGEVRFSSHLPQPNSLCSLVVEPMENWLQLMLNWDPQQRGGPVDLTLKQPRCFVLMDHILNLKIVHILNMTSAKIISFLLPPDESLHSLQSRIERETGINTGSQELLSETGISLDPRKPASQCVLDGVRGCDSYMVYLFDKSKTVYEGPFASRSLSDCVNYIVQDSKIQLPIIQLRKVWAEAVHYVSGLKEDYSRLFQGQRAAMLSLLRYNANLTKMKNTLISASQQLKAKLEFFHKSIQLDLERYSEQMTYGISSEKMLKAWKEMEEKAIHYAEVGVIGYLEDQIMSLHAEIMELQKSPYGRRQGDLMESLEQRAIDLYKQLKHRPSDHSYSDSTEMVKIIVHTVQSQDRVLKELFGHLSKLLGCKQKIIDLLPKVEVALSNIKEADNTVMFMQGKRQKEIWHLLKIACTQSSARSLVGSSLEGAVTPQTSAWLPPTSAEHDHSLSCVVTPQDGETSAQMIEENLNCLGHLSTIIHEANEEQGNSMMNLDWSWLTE
Description: as §1

[4] = biological target: T2, diverse set of kinases (Homo sapiens, UniProt P24941); assay: as above; type: biochemical; details: kinase CDK2
T2 construct: IC50 CDK2; other: kinase CDK2
Description: as §1

[5] = biological target: T3, diverse set of kinases (Homo sapiens, UniProt P06213); assay: as above; type: biochemical; details: kinase IR
T3 construct: IC50 IR; other: kinase IR
T3 sequence (P06213 whole entry): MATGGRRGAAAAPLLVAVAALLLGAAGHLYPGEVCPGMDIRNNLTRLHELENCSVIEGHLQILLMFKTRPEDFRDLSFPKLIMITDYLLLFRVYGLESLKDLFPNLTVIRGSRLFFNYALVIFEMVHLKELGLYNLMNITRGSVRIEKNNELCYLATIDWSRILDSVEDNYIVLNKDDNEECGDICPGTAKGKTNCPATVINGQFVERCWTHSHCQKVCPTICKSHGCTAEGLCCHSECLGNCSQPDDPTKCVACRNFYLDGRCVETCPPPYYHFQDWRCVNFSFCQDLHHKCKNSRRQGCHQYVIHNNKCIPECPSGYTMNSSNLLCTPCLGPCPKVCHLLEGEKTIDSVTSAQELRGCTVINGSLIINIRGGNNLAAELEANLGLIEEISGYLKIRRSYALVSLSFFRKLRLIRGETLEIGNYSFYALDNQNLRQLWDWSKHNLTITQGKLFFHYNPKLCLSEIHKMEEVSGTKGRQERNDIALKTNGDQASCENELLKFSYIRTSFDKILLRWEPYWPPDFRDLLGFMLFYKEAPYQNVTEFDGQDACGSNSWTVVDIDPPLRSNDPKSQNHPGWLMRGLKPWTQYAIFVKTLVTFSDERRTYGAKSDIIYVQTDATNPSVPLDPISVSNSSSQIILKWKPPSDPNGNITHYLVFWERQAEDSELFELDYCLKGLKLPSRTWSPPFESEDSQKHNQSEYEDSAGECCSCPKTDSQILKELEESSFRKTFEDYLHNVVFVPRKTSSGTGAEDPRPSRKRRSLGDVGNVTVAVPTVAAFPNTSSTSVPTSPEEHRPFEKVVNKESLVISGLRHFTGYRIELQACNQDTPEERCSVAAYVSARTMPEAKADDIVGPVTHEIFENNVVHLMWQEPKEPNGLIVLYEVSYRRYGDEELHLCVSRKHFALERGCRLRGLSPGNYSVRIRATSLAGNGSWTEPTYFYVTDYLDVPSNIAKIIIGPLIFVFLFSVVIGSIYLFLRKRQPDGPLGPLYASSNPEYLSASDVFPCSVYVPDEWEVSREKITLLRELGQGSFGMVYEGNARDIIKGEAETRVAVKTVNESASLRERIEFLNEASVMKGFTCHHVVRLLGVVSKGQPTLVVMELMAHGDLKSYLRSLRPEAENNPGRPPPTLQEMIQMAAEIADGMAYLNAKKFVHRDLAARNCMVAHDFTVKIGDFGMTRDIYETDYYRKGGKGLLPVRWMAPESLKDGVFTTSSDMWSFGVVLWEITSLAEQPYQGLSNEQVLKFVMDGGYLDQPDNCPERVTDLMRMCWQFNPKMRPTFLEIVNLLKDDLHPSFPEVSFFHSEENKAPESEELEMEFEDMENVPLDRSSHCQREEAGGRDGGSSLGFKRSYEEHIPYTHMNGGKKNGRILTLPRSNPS
Description: as §1

[6] = biological target: T4, diverse set of kinases (Homo sapiens, UniProt O14920); assay: as above; type: biochemical; details: kinase IKKb
T4 construct: IC50 IKKb; other: kinase IKKb
T4 sequence (O14920 1-756): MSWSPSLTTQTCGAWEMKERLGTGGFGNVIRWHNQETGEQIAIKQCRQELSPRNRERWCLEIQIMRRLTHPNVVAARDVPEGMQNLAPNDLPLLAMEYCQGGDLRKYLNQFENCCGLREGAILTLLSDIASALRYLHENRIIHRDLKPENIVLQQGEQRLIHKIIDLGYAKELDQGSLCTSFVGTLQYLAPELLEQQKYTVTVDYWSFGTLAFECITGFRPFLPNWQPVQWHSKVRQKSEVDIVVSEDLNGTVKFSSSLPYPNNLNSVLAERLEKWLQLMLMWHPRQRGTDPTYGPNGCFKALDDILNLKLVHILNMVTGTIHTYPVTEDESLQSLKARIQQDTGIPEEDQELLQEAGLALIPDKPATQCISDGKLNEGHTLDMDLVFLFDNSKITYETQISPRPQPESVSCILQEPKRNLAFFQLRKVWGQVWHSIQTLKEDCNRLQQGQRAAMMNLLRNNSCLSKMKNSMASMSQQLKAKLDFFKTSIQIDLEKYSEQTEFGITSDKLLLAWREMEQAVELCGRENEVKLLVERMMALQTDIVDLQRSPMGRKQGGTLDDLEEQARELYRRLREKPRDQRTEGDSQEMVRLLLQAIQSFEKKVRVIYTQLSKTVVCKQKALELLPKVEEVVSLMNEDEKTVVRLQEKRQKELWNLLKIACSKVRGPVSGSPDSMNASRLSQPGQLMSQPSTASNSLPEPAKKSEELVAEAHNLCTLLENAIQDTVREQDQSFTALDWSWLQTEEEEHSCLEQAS
Description: as §1

[7] = Blood brain barrier penetration: standard murine pharmacokinetic model, plasma and brain concentrations; type: in vivo; details: mouse; brain concentration 3 hrs after single IV injection 10 mg/kg, CL57 BL/6 mice; read-out: Cbrain 3 hrs
Description: Compounds disclosed herein may be evaluated in pharmacokinetic assays and models to determine absorption, distribution, metabolism, and excretion parameters. The choice and tailoring of in vitro and ex vivo assays and in vivo models will vary according to the route of administration/formulation, indication under study, properties of test compounds, etc., as well as according to such factors as costs, availability of technology and resources, etc. Such parameters are well known in the fields of pharmacology and drug development. It is within the capacity of one skilled in the art to design and carry out, such work, or to outsource it to a capable third party.
Several compounds disclosed herein were evaluated in a standard murine pharmacokinetic model. […] For ease of analysis compounds were dissolved in 5% DMSO, 40% PEG400, and […] to yield a nominal concentration of 2 mg/mL for intravenous administration. Compounds were administered via a single intravenous (IV) injection in CL57 BL/6 mice at 10 mg/kg in DMSO/PEG400/Saline solution. Three mice in each group were used for blood and brain collection at each time point. Blood samples (300 μL) were collected via the retro-orbital vein predose and at 30, 60 and 180 minutes postdose. Blood samples were placed into tubes containing sodium heparin and centrifuged under refrigerated conditions at 8000 rpm for 6 minutes to separate plasma from the samples. The brain of each animal was collected after the final blood collection. The whole tissue was harvested, excised and rinsed by saline, dried by filter paper, and then placed into one tube per tissue per animal. All samples were stored at −20° C. until bioanalysis. Compound concentrations in plasma and brain homogenate were determined using a high performance liquid chromatography/mass spectrometry (HPLC/MS/MS) methods.

MLK-3, sequence (Q16584 whole entry): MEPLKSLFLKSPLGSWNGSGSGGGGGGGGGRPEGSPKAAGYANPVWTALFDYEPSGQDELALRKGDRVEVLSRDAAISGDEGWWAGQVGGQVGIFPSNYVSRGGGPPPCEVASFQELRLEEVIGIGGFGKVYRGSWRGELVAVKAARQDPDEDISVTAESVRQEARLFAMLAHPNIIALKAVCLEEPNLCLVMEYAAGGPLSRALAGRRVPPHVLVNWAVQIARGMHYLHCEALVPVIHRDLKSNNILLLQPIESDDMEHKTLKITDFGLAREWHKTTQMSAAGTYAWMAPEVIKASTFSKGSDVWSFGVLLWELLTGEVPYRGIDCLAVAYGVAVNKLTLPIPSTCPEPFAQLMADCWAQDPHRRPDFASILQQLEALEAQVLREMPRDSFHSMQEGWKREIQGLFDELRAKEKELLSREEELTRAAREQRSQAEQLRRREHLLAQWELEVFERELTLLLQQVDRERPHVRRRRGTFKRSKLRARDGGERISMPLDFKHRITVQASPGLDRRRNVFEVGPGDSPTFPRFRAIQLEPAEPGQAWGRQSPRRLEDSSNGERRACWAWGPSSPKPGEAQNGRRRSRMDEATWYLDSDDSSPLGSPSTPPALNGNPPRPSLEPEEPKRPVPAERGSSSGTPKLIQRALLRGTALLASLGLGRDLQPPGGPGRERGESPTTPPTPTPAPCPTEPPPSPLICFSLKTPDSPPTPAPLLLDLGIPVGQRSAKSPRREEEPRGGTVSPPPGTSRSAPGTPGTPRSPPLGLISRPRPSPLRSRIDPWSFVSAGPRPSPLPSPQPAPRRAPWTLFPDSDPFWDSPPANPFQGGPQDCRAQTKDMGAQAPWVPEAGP

| Compound | IC50 [1] | IC50 [2] | IC50 [3] | IC50 [4] | IC50 [5] | IC50 [6] | concentration at 3 h [7] |
| --- | --- | --- | --- | --- | --- | --- | --- |
| O[C@H]1CC[C@H](Nc2ccc3ncc(-c4cc5ccccc5s4)n3n2)CC1 [Compound 105, trans-4-(3-(benzo[b]thiophen-2-yl)imidazo[1,2-b]pyridazin-6-ylamino)cyclohexanol] | 0.1 to 0.5 µM | > 10 µM | > 10 µM | 1.03 µM | > 10 µM | > 10 µM | – |
| COc1ccc(Nc2ccc3ncc(-c4cc5ccccc5s4)n3n2)cc1OC [Compound 12, 3-(benzo[b]thiophen-2-yl)-N-(3,4-dimethoxyphenyl)imidazo[1,2-b]pyridazin-6-amine] | 0.1 to 0.5 µM | > 10 µM | > 10 µM | 19.4 µM | > 10 µM | > 10 µM | 1280 ng/g |
| COc1cccc2cc(-c3cnc4ccc(N[C@H]5CC[C@H](O)CC5)nn34)sc12 [Compound 170, trans-4-(3-(7-methoxybenzo[b]thiophen-2-yl)imidazo[1,2-b]pyridazin-6-ylamino)cyclohexanol] | < 0.1 µM | > 10 µM | > 10 µM | > 10 µM | > 10 µM | > 10 µM | – |
| COc1cc2cc(-c3cnc4ccc(N[C@H]5CC[C@H](O)CC5)nn34)sc2cc1OC [Compound 169, trans-4-(3-(5,6-dimethoxybenzo[b]thiophen-2-yl)imidazo[1,2-b]pyridazin-6-ylamino)cyclohexanol] | < 0.1 µM | > 10 µM | > 10 µM | 8.26 µM | > 10 µM | > 10 µM | – |
| COc1cc2cc(-c3cnc4ccc(N(C)[C@H]5CC[C@H](OC)CC5)nn34)sc2cc1OC [Compound 175, 3-(5,6-dimethoxybenzo[b]thiophen-2-yl)-N-(trans-4-methoxycyclohexyl)-N-methylimidazo[1,2-b]pyridazin-6-amine] | < 0.1 µM | – | – | – | – | – | 1880 ng/g |
| CN1CCN(CCCNc2ccc3ncc(-c4cc5ccccc5s4)n3n2)CC1 [Compound 136, 3-(benzo[b]thiophen-2-yl)-N-(3-(4-methylpiperazin-1-yl)propyl)imidazo[1,2-b]pyridazin-6-amine] | < 5 µM | – | – | – | – | – | – |
| COc1ccc(Nc2ccc3ncc(-c4cc5cccc(OC(F)F)c5s4)n3n2)cc1OC [Compound 187, 3-(7-(difluoromethoxy)benzo[b]thiophen-2-yl)-N-(3,4-dimethoxyphenyl)imidazo[1,2-b]pyridazin-6-amine] | 0.5 to 1 µM | – | – | – | – | – | – |
| COc1ccc(Nc2ccc3ncc(-c4cc5cc(OC)c(OC)cc5s4)n3n2)cc1OC [Compound 67, 3-(5,6-dimethoxybenzo[b]thiophen-2-yl)-N-(3,4-dimethoxyphenyl)imidazo[1,2-b]pyridazin-6-amine] | < 0.1 µM | > 10 µM | > 10 µM | > 10 µM | > 10 µM | > 10 µM | 566 ng/g |
| COc1cc(Nc2ccc3ncc(-c4cc5cccc(OC(F)(F)F)c5s4)n3n2)ccc1OC(F)(F)F [Compound 190, N-(3-methoxy-4-(trifluoromethoxy)phenyl)-3-(7-(trifluoromethoxy)benzo[b]thiophen-2-yl)imidazo[1,2-b]pyridazin-6-amine] | < 5 µM | – | – | – | – | – | – |
| COc1cc(Nc2ccc3ncc(-c4cc5cccc(OC(F)(F)F)c5s4)n3n2)ccc1OC(F)F [Compound 189, N-(4-(difluoromethoxy)-3-methoxyphenyl)-3-(7-(trifluoromethoxy)benzo[b]thiophen-2-yl)imidazo[1,2-b]pyridazin-6-amine] | < 5 µM | – | – | – | – | – | – |
| CCCOc1cccc2cc(-c3cnc4ccc(Nc5ccc(OC)c(OC)c5)nn34)sc12 [Compound 81, N-(3,4-dimethoxyphenyl)-3-(7-propoxybenzo[b]thiophen-2-yl)imidazo[1,2-b]pyridazin-6-amine] | 0.5 to 1 µM | – | – | – | – | – | – |
| COc1ccc(N(C)c2ccc3ncc(-c4cc5cncc(OC)c5s4)n3n2)cc1OC [Compound 212, N-(3,4-dimethoxyphenyl)-3-(7-methoxythieno[3,2-c]pyridin-2-yl)-N-methylimidazo[1,2-b]pyridazin-6-amine] | < 5 µM | – | – | – | – | – | – |
| COc1ccc(Nc2ccc3ncc(-c4cc5cccc(OC)c5s4)n3n2)cc1OC(F)(F)F [Compound 185, N-(4-methoxy-3-(trifluoromethoxy)phenyl)-3-(7-methoxybenzo[b]thiophen-2-yl)imidazo[1,2-b]pyridazin-6-amine] | < 5 µM | – | – | – | – | – | – |
| COc1cncc2cc(-c3cnc4ccc(N[C@H]5CC[C@H](O)CC5)nn34)sc12 [Compound 213, trans-4-(3-(7-methoxythieno[3,2-c]pyridin-2-yl)imidazo[1,2-b]pyridazin-6-ylamino)cyclohexanol] | < 0.1 µM | – | – | – | – | – | – |
| Oc1ccc(-c2cnc3ccc(N[C@H]4CC[C@H](O)CC4)nn23)cc1 [Compound 102, trans-4-(6-(4-hydroxycyclohexylamino)imidazo[1,2-b]pyridazin-3-yl)phenol] | < 5 µM | – | – | – | – | – | – |
| OCCNc1ccc2ncc(-c3cc4ccccc4s3)n2n1 [Compound 108, 2-(3-(benzo[b]thiophen-2-yl)imidazo[1,2-b]pyridazin-6-ylamino)ethanol] | 0.5 to 1 µM | – | – | – | – | – | – |
| c1cc2cc(-c3ccc4ncc(-c5ccc6[nH]ccc6c5)n4n3)ccc2[nH]1 [Compound 50, 3,6-di(1H-indol-5-yl)imidazo[1,2-b]pyridazine] | 0.1 to 0.5 µM | – | – | – | – | – | – |
| CCOc1ccc(Nc2ccc3ncc(-c4cc5cccc(OC)c5s4)n3n2)cc1OC [Compound 181, N-(4-ethoxy-3-methoxyphenyl)-3-(7-methoxybenzo[b]thiophen-2-yl)imidazo[1,2-b]pyridazin-6-amine] | 0.1 to 0.5 µM | – | – | – | – | – | – |
